Test results taken from patent US20210284621A1 (priority 2018, published 2021).
Where two headings read alike, the source gives them in different places.

Experiments:
[1] = target: T1, CB1 receptor (Homo sapiens, UniProt P21554); assay: cell-based; set-up: host or cells: PathHunter cell lines
Procedure: (§1) The PathHunter® β-Arrestin assay monitors the activation of a GPCR in a homogenous, non-imaging assay format using a technology developed by DiscoverX called Enzyme Fragment Complementation (EFC) with β-galactosidase (3-Gal) as the functional reporter. […] EA is fused to β-Arrestin and PK is fused to the GPCR of interest.
(§2) PathHunter cell lines were expanded from freezer stocks according to standard procedures. Cells were seeded in a total volume of 20 μL into white walled, 384-well microplates and incubated at 37° C. for the appropriate time prior to testing. For agonist activity determination, cells were incubated with sample to induce response. Intermediate dilution of sample stocks was performed to generate 5× sample in assay buffer. 5 μL of 5× sample was added to cells and incubated at 37° C. or room temperature for 90 to 180 minutes. Vehicle concentration was 1%. Assay signal was generated through a single addition of 12.5 or 15 μL (50% v/v) of PathHunter Detection reagent cocktail, followed by a one hour incubation at room temperature. Microplates were read following signal generation with a PerkinElmer Envision™ instrument for chemiluminescent signal detection. Compound activity was analyzed using CBIS data analysis suite (ChemInnovation, CA). For agonist assays, percentage activity was calculated using the following formula: % Activity=100%×(mean RLU of test sample− mean RLU of vehicle control)/(mean MAX control ligand− mean RLU of vehicle control).

[2] = target: T2, CB2 receptor (Homo sapiens, UniProt P34972); assay: cell-based; set-up: host or cells: cAMP Hunter cell lines
T2 sequence (P34972 whole entry): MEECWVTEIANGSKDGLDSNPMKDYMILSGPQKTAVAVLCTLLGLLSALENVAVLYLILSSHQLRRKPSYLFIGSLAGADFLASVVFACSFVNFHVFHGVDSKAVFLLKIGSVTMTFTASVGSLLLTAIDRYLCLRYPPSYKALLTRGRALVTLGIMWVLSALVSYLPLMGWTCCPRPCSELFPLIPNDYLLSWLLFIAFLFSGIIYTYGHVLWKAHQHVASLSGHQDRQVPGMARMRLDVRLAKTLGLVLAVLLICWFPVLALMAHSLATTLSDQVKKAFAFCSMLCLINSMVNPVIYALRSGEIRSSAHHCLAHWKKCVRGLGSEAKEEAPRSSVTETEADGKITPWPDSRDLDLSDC
Procedure: as §1, §2

[3] = target: T1, CB1 receptor; assay: CB1 competitive radioligand binding assay ([3H] SR141716A); set-up: expressed in transfected cells; host or cells: Chem-1 cells; settings: for inhibition at 0.5 µM: 0.5 μM compound, 2.0 nM [3H] SR141716A, 90 min 37° C.
Procedure: (§3) J Med Chem. 41(26): 5177-5187 (1998); and Munro S., et al. Molecular characterization of a peripheral receptor for cannabinoids. Nature 365:61-65 (1993).
CB1 Radioligand Binding Assay: A compound of the invention (0.5 μM in 1% DMSO) was incubated with Chem-1 cells expressing human recombinant CB1 receptor in buffer (50 mM HEPES, pH 7.4, 5 mM MgCl2, 1 mM CaCl2, 0.2% BSA) for 90 minutes at 37° C. in the presence of 2.0 nM [H^3] SR141716A (CB1 radioligand). % Inhibition was determined as a function of radioligand binding to the CB1 receptor.

[4] = target: T2, CB2 receptor; assay: CB2 competitive radioligand binding assay ([3H] WIN-55,212-2); set-up: expressed in transfected cells; host or cells: CHO-K1 cells; settings: for inhibition at 0.05 µM: 0.05 μM compound, 2.4 nM [3H] WIN-55,212-2, 90 min 37° C.; for Fold Selectivity (CB1/CB2): Table 3, ratio of Ki CB1/CB2
Procedure: as §3
CB2 Radioligand Binding Assay: A compound of the invention (0.05 μM in 1% DMSO) was incubated with CHO-K1 cells expressing human recombinant CB2 receptor in buffer (20 mM HEPES, pH 7.0, 0.5% BSA) for 90 minutes at 37° C. in the presence of 2.4 nM [H^3] WIN-55,212-2 (CB2 radioligand). % Inhibition was determined as a function of radioligand binding to the […].

[5] = PathHunter agonist mode, read-out: CB1 Activity (β-Arrestin)
[6] = PathHunter agonist mode, read-out: CB2 Activity (β-Arrestin)

T1 sequence (P21554 whole entry, the tested form may be a part): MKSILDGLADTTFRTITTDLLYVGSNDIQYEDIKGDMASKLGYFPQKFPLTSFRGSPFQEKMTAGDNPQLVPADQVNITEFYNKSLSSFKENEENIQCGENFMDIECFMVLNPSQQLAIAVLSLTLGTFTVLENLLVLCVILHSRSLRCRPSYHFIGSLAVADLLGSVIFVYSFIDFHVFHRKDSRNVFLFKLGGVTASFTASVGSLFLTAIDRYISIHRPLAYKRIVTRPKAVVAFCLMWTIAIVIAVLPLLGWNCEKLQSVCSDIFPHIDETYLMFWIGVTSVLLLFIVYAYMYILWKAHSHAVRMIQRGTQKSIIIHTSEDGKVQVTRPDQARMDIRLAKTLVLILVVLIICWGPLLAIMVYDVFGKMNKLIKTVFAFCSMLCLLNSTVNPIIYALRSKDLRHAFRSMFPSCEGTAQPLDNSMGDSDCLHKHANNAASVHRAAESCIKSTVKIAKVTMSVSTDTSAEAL

SMILES	EC50 [1, 5]	EC50 [2, 6]	inhibition at 0.5 µM [3]	Ki ([3]; Table 2, read-out: CB1 Binding Ki)	inhibition at 0.05 µM [4]	Ki ([4]; Table 2, read-out: CB2 Binding Ki)	EC50 [1]	EC50 [2]	Ki [3]	Ki [4]	Fold Selectivity (CB1/CB2) [4]
CCCCCCC(C)(C)c1cc(O)c2c(c1)OC(C)(C)[C@@H]1CC=C(C(=O)NCC(=O)O)C[C@@H]21 [Compound 1, ((6aR,10aR)-1-Hydroxy-6,6-dimethyl-3-(2-methyloctan-2-yl)-6a,7,10,10a-tetrahydro-6H-benzo[c]chromene-9-carbonyl)glycine]	> 3000 nM	58 nM	10%	> 3000 nM	4%	1310 nM	–	–	–	–	–
CCCCCCC(C)(C)c1cc(O)c2c(c1)OC(C)(C)[C@@H]1CC=C(C(=O)N[C@H](C)C(=O)O)C[C@@H]21 [Compound 2, ((6aR,10aR)-1-Hydroxy-6,6-dimethyl-3-(2-methyloctan-2-yl)-6a,7,10,10a-tetrahydro-6H-benzo[c]chromene-9-carbonyl)-D-alanine]	> 3000 nM	> 3000 nM	9%	–	0%	–	–	–	–	–	–
CCCCCCC(C)(C)c1cc(O)c2c(c1)OC(C)(C)[C@@H]1CC=C(C(=O)N[C@H](Cc3ccc(O)cc3)C(=O)O)C[C@@H]21 [Compound 3]	–	–	13%	–	8%	–	> 3000 nM	> 3000 nM	–	–	–
CCCCCCC(C)(C)c1cc(O)c2c(c1)OC(C)(C)[C@H]1CC=C(C(=O)O)C[C@H]21 [Compound 20, (6aS,10aS)-1-Hydroxy-6,6-dimethyl-3-(2-methyloctan-2-yl)-6a,7,10,10a-tetrahydro-6H-benzo[c]chromene-9-carboxylic acid]	–	–	-10%	–	9%	–	> 3000 nM	> 3000 nM	–	–	–
CCCCCCC(C)(C)c1cc(O)c2c(c1)OC(C)(C)[C@@H]1CC=C(C(=O)OCC(O)CO)C[C@@H]21 (stereo partly drawn) [Compound 22, 2,3-Dihydroxypropyl (6aR,10aR)-1-hydroxy-6,6-dimethyl-3-(2-methyloctan-2-yl)-6a,7,10,10a-tetrahydro-6H-benzo[c]chromene-9-carboxylate]	–	4 nM	107%	–	92%	–	42 nM	–	–	–	–
CCCCCCC(C)(C)c1cc(O)c2c(c1)OC(C)(C)[C@@H]1CC=C(C(=O)NCCC(=O)O)C[C@@H]21 [Compound 26, 3-((6aR,10aR)-1-Hydroxy-6,6-dimethyl-3-(2-methyloctan-2-yl)-6a,7,10,10a-tetrahydro-6H-benzo[c]chromene-9-carboxamido)propanoic acid]	> 3000 nM	> 3000 nM	9%	–	2%	–	–	–	–	–	–
CCCCCCC(C)(C)c1cc(O)c2c(c1)OC(C)(C)[C@@H]1CC=C(C(=O)NC(C)(C)CC(=O)O)C[C@@H]21 [Compound 27, 3-((6aR,10aR)-1-Hydroxy-6,6-dimethyl-3-(2-methyloctan-2-yl)-6a,7,10,10a-tetrahydro-6H-benzo[c]chromene-9-carboxamido)-3-methylbutanoic acid]	> 3000 nM	> 3000 nM	9%	–	7%	–	–	–	–	–	–
CCCCCCC(C)(C)C1=CC2=C(C(=O)C1=O)[C@@H]1CC(C(=O)O)=CC[C@H]1C(C)(C)O2 [Compound 30, (6aR,10aR)-6,6-dimethyl-3-(2-methyloctan-2-yl)-1,2-dioxo-2,6,6a,7,10,10a-hexahydro-1H-benzo[c]chromene-9-carboxylic acid]	> 3000 nM	> 3000 nM	19%	–	-2%	–	–	–	–	–	–
CCCCCCC(C)(C)c1cc(O)c2c(c1)OC(C)(C)[C@@H]1CC=C(C(=O)NOC(C)(C)C)C[C@@H]21 [Compound 88, (6aR,10aR)-N-(tert-butoxy)-1-hydroxy-6,6-dimethyl-3-(2-methyloctan-2-yl)-6a,7,10,10a-tetrahydro-6H-benzo[c]chromene-9-carboxamide]	–	1.7 nM	–	–	–	–	5.9 nM	–	5.4 nM	1 nM	5.7
CCCCCCC(C)(C)c1cc(O)c2c(c1)OC(C)(C)[C@@H]1CC=C(C(=O)NC3COC3)C[C@@H]21 [Compound 90, (6aR,10aR)-1-hydroxy-6,6-dimethyl-3-(2-methyloctan-2-yl)-N-(oxetan-3-yl)-6a,7,10,10a-tetrahydro-6H-benzo[c]chromene-9-carboxamide]	–	2.7 nM	–	–	–	–	128 nM	–	10 nM	2.5 nM	4.0
CCCCCCC(C)(C)c1cc(O)c2c(c1)OC(C)(C)[C@@H]1CC=C(C(=O)NC3(C(F)(F)F)CCC3)C[C@@H]21 [Compound 96, (6aR,10aR)-1-hydroxy-6,6-dimethyl-3-(2-methyloctan-2-yl)-N-(1-(trifluoromethyl)cyclobutyl)-6a,7,10,10a-tetrahydro-6H-benzo[c]chromene-9-carboxamide]	–	3 nM	–	–	–	–	12.8 nM	–	25 nM	1.3 nM	19.2
CCCC(C)(C)c1cc(O)c2c(c1)OC(C)(C)[C@@H]1CC=C(C(=O)NC3CCCC3)C[C@@H]21 [Compound 97, (6aR,10aR)-N-cyclopentyl-1-hydroxy-6,6-dimethyl-3-(2-methylpentan-2-yl)-6a,7,10,10a-tetrahydro-6H-benzo[c]chromene-9-carboxamide]	–	–	–	–	–	–	> 3000 nM	17.9 nM	780 nM	72 nM	10.8
CCCC(C)(C)c1cc(O)c2c(c1)OC(C)(C)[C@@H]1CC=C(C(=O)NC3(C(F)(F)F)CC3)C[C@@H]21 [Compound 102, (6aR,10aR)-1-hydroxy-6,6-dimethyl-3-(2-methylpentan-2-yl)-N-(1-(trifluoromethyl)cyclopropyl)-6a,7,10,10a-tetrahydro-6H-benzo[c]chromene-9-carboxamide]	> 3000 nM	30.5 nM	–	–	–	–	–	–	860 nM	51 nM	16.9
CCCCCCC(C)(C)c1cc(O)c2c(c1)OC(C)(C)[C@@H]1CC=C(C(=O)NC3CNC3)C[C@@H]21 [Compound 103, (6aR,10aR)-N-(azetidin-3-yl)-1-hydroxy-6,6-dimethyl-3-(2-methyloctan-2-yl)-6a,7,10,10a-tetrahydro-6H-benzo[c]chromene-9-carboxamide]	–	9.5 nM	–	–	–	–	1710 nM	–	270 nM	51 nM	5.3
CCCCCCC(C)(C)c1cc(O)c2c(c1)OC(C)(C)[C@@H]1CC=C(C(=O)N3CCNCC3)C[C@@H]21 [Compound 104, ((6aR,10aR)-1-hydroxy-6,6-dimethyl-3-(2-methyloctan-2-yl)-6a,7,10,10a-tetrahydro-6H-benzo[c]chromen-9-yl)(piperazin-1-yl)methanone]	–	5 nM	–	–	–	–	4450 nM	–	260 nM	30 nM	8.7
CCCCCCC(C)(C)c1cc(O)c2c(c1)OC(C)(C)[C@@H]1CC=C(C(=O)NOC)C[C@@H]21 [Compound 107]	49.4 nM	2.9 nM	–	–	–	–	–	–	36.2 nM	4.9 nM	7.4
CCCCCCC(C)(C)c1cc(O)c2c(c1)OC(C)(C)[C@@H]1CC=C(C(=O)NS(C)(=O)=O)C[C@@H]21 [Compound 108, (6aR,10aR)-1-hydroxy-6,6-dimethyl-3-(2-methyloctan-2-yl)-N-(methylsulfonyl)-6a,7,10,10a-tetrahydro-6H-benzo[c]chromene-9-carboxamide]	–	–	–	–	–	–	1430 nM	29.5 nM	> 3000 nM	302 nM	>9.9
